The record followed here is PubChem BioAssay (NCI).

Each structure is given as a SMILES string.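 A five-concentration, 48-hour dose response in 96-well plates underlies each endpoint, interpolated linearly between surrounding concentrations. GI50 marks 50% less growth. TGI: concentration producing complete growth inhibition.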

Some test systems named below: SF-295 CNS; PC-3 prostate; SN12C renal; SNB-75 CNS; U251 CNS; OVCAR-3 ovarian; SF-268 CNS; MALME-3M melanoma; HL-60(TB) leukemia; NCI-H23 lung.
Common to all, as to test: DTP human tumour cell line panel, 48 h

In the case of `Cc1cc(NS(=O)(=O)c2ccc(NC(NC(=O)OC(C)C)(C(F)(F)F)C(F)(F)F)cc2)nc(C)n1`, the TGI in the assay on SF-295 CNS, in the assay on PC-3 prostate, with SN12C renal, in the assay with SNB-75 CNS, in the assay on U251 CNS and in the assay with OVCAR-3 ovarian was greater than 100 µM each time. In addition, the TGI in the assay with SF-268 CNS, with MALME-3M melanoma, with HL-60(TB) leukemia and in the assay with NCI-H23 lung was greater than 100 µM throughout.
`N#Cc1c(N)n(-c2nc3ccccc3s2)c(=O)c2cc([N+](=O)[O-])ccc12`: the TGI in the assay with SF-295 CNS was greater than 64.9 µM; with PC-3 prostate, greater than 52.1 µM; with SN12C renal it was greater than 100 µM; with SNB-75 CNS it was greater than 48.3 µM; with U251 CNS it was greater than 100 µM; in the assay with OVCAR-3 ovarian, 51.9 µM. Besides, the TGI is greater than 49.6 µM in the assay on SF-268 CNS, 36.7 µM with MALME-3M melanoma, 24.9 µM with HL-60(TB) leukemia and 36.5 µM in the assay on NCI-H23 lung.
In the case of `COc1ccc(OC)c2c(Nc3ccc(S(=O)(=O)O)c4cc(S(=O)(=O)O)cc(S(=O)(=O)O)c34)cc(C)nc12`, the TGI in the assay with SF-295 CNS, in the assay on PC-3 prostate, with SN12C renal, with SNB-75 CNS, with U251 CNS and with OVCAR-3 ovarian was greater than 100 µM each time. Moreover, the TGI in the assay with SF-268 CNS, in the assay with MALME-3M melanoma, in the assay with HL-60(TB) leukemia and in the assay on NCI-H23 lung was greater than 100 µM throughout.
Turning to `Cc1nnc(N)s/c1=N/O`, the total growth inhibition concentration (TGI) in the assay on SF-295 CNS, in the assay on PC-3 prostate, in the assay on SN12C renal, with SNB-75 CNS, with U251 CNS and in the assay with OVCAR-3 ovarian was greater than 100 µM throughout. The TGI with SF-268 CNS, with MALME-3M melanoma, with HL-60(TB) leukemia and in the assay with NCI-H23 lung was greater than 100 µM throughout.
In the case of `C(/Cc1ccc2c(c1)OCO2)=N\NC1=NCCCCN1`, the TGI in the assay with SF-295 CNS, in the assay on PC-3 prostate, in the assay on SN12C renal, with SNB-75 CNS, with U251 CNS and in the assay on OVCAR-3 ovarian was greater than 100 µM in each case. Further, the TGI in the assay on SF-268 CNS, with MALME-3M melanoma, with HL-60(TB) leukemia and in the assay on NCI-H23 lung was greater than 100 µM in each case.
Regarding `Cc1cc(N(CCCl)CCCl)ccc1/C=N\NC(=O)c1cccnc1`, the GI50 is 4.17 µM in the assay on SF-295 CNS; 22.7 µM in the assay on PC-3 prostate; 22.4 µM with SN12C renal; 25.5 µM in the assay with SNB-75 CNS; 21.6 µM in the assay on U251 CNS; 23.1 µM in the assay on OVCAR-3 ovarian. Further, the GI50 with SF-268 CNS is 25.1 µM; in the assay with MALME-3M melanoma, 26.2 µM; in the assay on HL-60(TB) leukemia it was 4.3 µM; in the assay on NCI-H23 lung, 18.4 µM. The total growth inhibition concentration (TGI) is 28.3 µM in the assay on SF-295 CNS; greater than 100 µM in the assay on PC-3 prostate; greater than 100 µM in the assay on SN12C renal; greater than 100 µM with SNB-75 CNS; greater than 100 µM in the assay on U251 CNS; 79.3 µM in the assay with OVCAR-3 ovarian. Also, the concentration for total growth inhibition (TGI) with SF-268 CNS was greater than 100 µM; in the assay on MALME-3M melanoma it was 83.7 µM; in the assay on HL-60(TB) leukemia, 26.4 µM; in the assay with NCI-H23 lung it was greater than 100 µM.
Turning to `N#Cc1c2c(c(Nc3ccc(Cl)cc3)n3c1nc1ccccc13)CCCC2`, the TGI is greater than 100 µM in the assay with SF-295 CNS; greater than 100 µM with PC-3 prostate; greater than 100 µM with SN12C renal; greater than 100 µM in the assay with SNB-75 CNS; greater than 65.4 µM with U251 CNS; greater than 100 µM with OVCAR-3 ovarian. The TGI in the assay with SF-268 CNS, in the assay with MALME-3M melanoma, in the assay on HL-60(TB) leukemia and in the assay with NCI-H23 lung was greater than 100 µM each time.
As for `NNC(=O)COc1nc(-c2cccs2)nc2ccc(I)cc12`, the TGI is 86.2 µM in the assay on SF-295 CNS; greater than 100 µM with PC-3 prostate; 92.2 µM in the assay with SN12C renal; 59 µM in the assay with SNB-75 CNS; 55.8 µM in the assay with U251 CNS; 40.7 µM with OVCAR-3 ovarian. In addition, the TGI with SF-268 CNS was 70.5 µM; with MALME-3M melanoma it was 45.1 µM; in the assay on HL-60(TB) leukemia, greater than 100 µM; in the assay on NCI-H23 lung, 41.2 µM. Further, in the assay with HL-60(TB) leukemia, the GI50 was 37.9 µM.
On to `COc1cc(CC2C(=O)OCC2Cc2ccc(OC)c(OC)c2)ccc1O` (stereo unspecified), for which the TGI with SF-295 CNS, in the assay with PC-3 prostate, in the assay with SN12C renal, in the assay on SNB-75 CNS, in the assay with U251 CNS and with OVCAR-3 ovarian was greater than 100 µM throughout. Further, the TGI in the assay with SF-268 CNS, in the assay on MALME-3M melanoma, in the assay on HL-60(TB) leukemia and with NCI-H23 lung was greater than 100 µM throughout.
`COc1ccc(/[N+]([O-])=C/c2ccccc2OC(=S)S)cc1`: the TGI with SF-295 CNS was greater than 100 µM; with PC-3 prostate it was greater than 100 µM; with SN12C renal, 56.9 µM; in the assay on SNB-75 CNS it was greater than 100 µM; with U251 CNS it was greater than 100 µM; in the assay with OVCAR-3 ovarian, greater than 100 µM. The TGI is greater than 100 µM in the assay with SF-268 CNS, greater than 100 µM with MALME-3M melanoma, 70.8 µM in the assay with HL-60(TB) leukemia and 85.5 µM in the assay on NCI-H23 lung.
On to `Nc1nc2c(c(-c3ccc(F)cc3)n1)COC/C2=C\c1ccc(F)cc1`, for which the TGI is greater than 100 µM in the assay on SF-295 CNS; greater than 100 µM in the assay on PC-3 prostate; greater than 100 µM in the assay with SN12C renal; 83.1 µM in the assay with SNB-75 CNS; 31 µM in the assay on U251 CNS; greater than 100 µM in the assay with OVCAR-3 ovarian. Moreover, the TGI was greater than 100 µM in the assay on SF-268 CNS, 35.1 µM with MALME-3M melanoma, greater than 100 µM in the assay on HL-60(TB) leukemia and greater than 100 µM with NCI-H23 lung.
On to `O=C1c2sccc2C(=O)c2c(CO)csc21`, for which the TGI was 8.04 µM in the assay with SF-295 CNS; greater than 32.8 µM with PC-3 prostate; 22.4 µM in the assay with SN12C renal; 15.1 µM with SNB-75 CNS; 23.2 µM with U251 CNS; 6.3 µM in the assay with OVCAR-3 ovarian. The TGI turned out to be 30.7 µM in the assay with SF-268 CNS, 6.71 µM with MALME-3M melanoma, 6.08 µM in the assay with HL-60(TB) leukemia and 5.95 µM in the assay with NCI-H23 lung.
